According to US10376553B2, “Pharmaceutical composition for preventing and treating chronic obstructive lung disease containing, as active ingredient, Magnoliae flos extract, fraction, or active fraction thereof” (KOREA RESEARCH INSTITUTE OF BIOSCIENCE AND BIOTECHNOLOGY, priority 2015, dated 2019):

Experiments:
H292 cells = assay: Cytotoxicity (CCK-8 cell viability) of the compounds of Magnoliae flos in H292 cells; assay type: cell-based, human; conditions: 24 h, vs 0.2% DMSO control = 100%
Protocol: Then, 10 μl of the CCK-8 solution (Dojindo Laboratories, Japan) was mixed with 90 μl of the medium, and 100 μl thereof was added per well. After incubation for a minimum of 30 minutes to a maximum of 4 hours, the absorbance was measured at 570 nm. The cell viability was calculated according to the following Equation 2 with a negative control group treated with 0.2% DMSO as a reference of 100%.
Cell viability=(Compound treated OD 570 nm value)×100/(Negative control group OD 570 nm value) [Equation 2]

MUC5AC protein = assay: Inhibition of MUC5AC protein production (immunoassay) by the compounds; assay type: cell-based, human; conditions: for Inhibition rate (%): MUC5AC secretion, TNF-α 20 ng/mL; for production of MUC5AC (in words): vs TNF-α treated group = 100%
Protocol: For immunoassay of the resulting MUC5AC, the supernatant (50 uL) recovered was dispensed on to a 96-well plate and dried in a thermostat set at 50° C. It was washed with PBS supplemented with 1% BSA and reacted with an MUC5AC antibody (abcam, USA) at room temperature for 1 hour. A secondary antibody was dispensed thereto for reaction for 1 hour. It was washed again and then reacted with a 3,3′,5,5′-tetramethylbenzidine peroxide solution for 20 minutes. After the reaction was stopped with a sulfuric acid solution, the degree of color development was measured at 450 nm.
As a result, as shown in the following Table 6, the amount of MUCSAC secretion increased in the group treated with TNF-α.

MUC5AC promoters = assay: MUC5AC promoter luciferase reporter assay in H292 cells; assay type: cell-based, human; conditions: Table 7, MUC5AC promoter luciferase reporter, 10 μM, TNF-α 20 ng/mL
Description: The degree of activation of luciferase was confirmed using a One-glow Luciferase Assay System (Promega).
As a result, as shown in the following Table 7, the activity of the MUC5AC promoters increased in the group treated with TNF-α.

[1] = tested on: inflammatory cells in the bronchoalveolar lavage fluid; assay: Inflammatory cells in bronchoalveolar lavage fluid of the COPD mouse model (cigarette smoke + LPS); assay type: in vivo, C57BL/6N mice; conditions: BALF, vs COPD-induced group
Protocol: Six-week-old male SPF (specific pathogen-free) C57BL/6N mice (22 to 24 g) were supplied by Koatech (Korea). These animals were fed with a sufficient amount of solid feed (no antibiotics, Samyang Feed Co.) and water until the day of the experiment. They were allowed to adapt for 1 week in a light-dark cycle environment at a temperature of 22±2° C. and a humidity of 55±15%, and then subjected to the experiment.
The animal model was exposed to cigarette smoke to induce chronic obstructive pulmonary disease. 3R4F Kentuchy Reference Cigarettes as standard cigarettes for use to generate cigarette smoke were supplied by University of California (USA). The standard cigarettes contain 9.4 mg of tar, 11 mg of total particle matter (TPM), and 12 mg of carbon monoxide per 1 cigarette. The standard cigarettes were used after harmonization for 48 hours to 72 hours at a temperature of 22±1° C. and a humidity of 60±2%. Further, Cigarette Smoke Generator manufactured by Korea BioLink (Korea) was used for exposure to cigarette smoke. Cigarette smoke was inhaled for 1 hour (8 pcs/hour) for 7 days from 1 hour after oral administration of a sample. 10 μg of LPS (lipopolysaccharide) in PBS 50 μL was injected intranasally to each mouse on the 4th day of the experiment after the mouse was anesthetized with zoletyl 1 hour before the exposure to cigarette smoke. The smoking condition was 8 puffs per 1 standard cigarette (volume: 45 mL, duration: 2 seconds, and interval: 1 time/min).
The active fraction of Magnoliae flos (15, 30 mg/kg) and roflumilast (10 mg/kg) as therapeutic substances were dissolved in 0.5% sodium carboxymethyl cellulose and were orally administered 1 hour before the exposure to cigarette smoke.
The experimental groups were divided into (i) normal control (NC) group; (ii) cigarette smoke+LPS exposure group (COPD); (iii) experimental group administered with roflumilast (ROF) (10 mg/kg, p.o) 1 hour before the exposure to cigarette smoke+LPS; and (iv) experimental group administered with the active fraction of Magnoliae flos (15, 30 mg/kg, p.o; Magnoliae flos 15 and Magnoliae flos 30) 1 hour before the exposure to cigarette smoke+LPS. […] Then, they were administered in the same manner as above.
The bronchial alveolar lavage fluid was separated from the animal model treated with the active fraction and the compounds of Magnoliae flos in <Test Example 6-2> above in the following manner, and the number of inflammatory cells was measured.
Specifically, a mouse sonde was inserted into the bronchial tube, a 1 mL syringe containing 0.7 mL of DPBS (Dulbecco's Phosphate-Buffered Saline) was connected thereto, and DPBS was injected into the lung. The injected DPBS was recovered, and this procedure was repeated twice. The bronchoalveolar lavage fluid separated by DPBS was centrifuged at 1,500 rpm for 15 minutes to make a cell pellet. The supernatant was stored frozen at −70° C. for cytokine analysis. Each cell obtained was suspended in DPBS, attached to a slide glass using a cytospin centrifuge, and Diff-Quik stained. The number of inflammatory cells in each sample was counted through microscopic examination, and the inhibition rate was calculated according to the following Equation 3.
Inhibition rate=(Value of COPD-induced group−value of target substance administered group)×100/(Value of COPD-induced group) [Equation 3]

reactive oxygen species = assay: Production of active oxygen species in BALF of the COPD model (DCF-DA); assay type: in vivo, C57BL/6N mice; conditions: for Active oxygen inhibition rate (%) / production of active oxygen species (in words): vs COPD-induced group; for production of active oxygen species (in words): 15 and 30 mg/kg
Protocol: Production of active oxygen species in the bronchoalveolar lavage fluid obtained in <Test Example 6-3> above was confirmed by the following method.
Specifically, the separated BALF (200 μL) was treated to the final concentration of 20 μM of DCF-DA (dihydrodichlorofluorescein diacetate, Sigma-Aldrich, USA), followed by culturing for 30 minutes and measurement using Fluorescence (Molecular Device, USA). The inhibition rate was calculated by Equation 3 above.

IL-6 = IL-6 level in BALF of the COPD model (ELISA); assay type: in vivo, C57BL/6N mice; conditions: vs COPD-induced group; for IL-6 inhibition rate (%): BALF
Protocol: (§1) Cytokines were measured in the cell supernatant obtained in <Test Example 6-3> above by the following method. Specifically, the levels of IL-6 (R & D System, USA) and TNF-α (BD Bioscience, USA) in the separated BALF were measured by enzyme-linked immuno-sorbent assay (ELISA). Each cytokine analysis was carried out according to the manufacturer's test method.

TNF-α = TNF-α level in BALF of the COPD model (ELISA); assay type: in vivo, C57BL/6N mice; conditions: vs COPD-induced group; for TNF-α inhibition rate (%): BALF
Protocol: as §1

| SMILES | Inhibition rate (%) (MUC5AC protein; 2.5 μM) | Inhibition rate (%) (MUC5AC protein; 5 μM) | Inhibition rate (%) (MUC5AC protein; 10 μM) | Inhibition rate of inflammatory cell infiltration (%) Macrophage ([1]; 15 mg/kg p.o.) | Inhibition rate of inflammatory cell infiltration (%) Neutrophil ([1]; 15 mg/kg p.o.) | Inhibition rate of inflammatory cell infiltration (%) Total inflammatory cells ([1]; 15 mg/kg p.o.) | Inhibition rate of inflammatory cell infiltration (%) Macrophage ([1]; 30 mg/kg p.o.) | Inhibition rate of inflammatory cell infiltration (%) Neutrophil ([1]; 30 mg/kg p.o.) | Inhibition rate of inflammatory cell infiltration (%) Total inflammatory cells ([1]; 30 mg/kg p.o.) | increase in inflammatory cells (in words) [1] | Active oxygen inhibition rate (%) (reactive oxygen species; 15 mg/kg p.o.) | Active oxygen inhibition rate (%) (reactive oxygen species; 30 mg/kg p.o.) | production of active oxygen species (in words) (reactive oxygen species) | IL-6 inhibition rate (%) (IL-6; 15 mg/kg p.o.) | IL-6 inhibition rate (%) (IL-6; 30 mg/kg p.o.) | IL-6 in the bronchoalveolar lavage fluid (in words) (IL-6) | TNF-α inhibition rate (%) (TNF-α; 15 mg/kg p.o.) | TNF-α inhibition rate (%) (TNF-α; 30 mg/kg p.o.) | TNF-α secretion in the bronchoalveolar lavage fluid (in words) (TNF-α) | rate of inhibiting reactive oxygen compared with ROF drug control group (in words) (reactive oxygen species; 15 mg/kg) | other results |
| --- | --- | --- | --- | --- | --- | --- | --- | --- | --- | --- | --- | --- | --- | --- | --- | --- | --- | --- | --- | --- | --- |
| COc1ccc([C@H]2OC[C@H]3[C@@H]2CO[C@@H]3c2ccc(OC)c(OC)c2)cc1OC [Compound S1, dimethylpinoresinol] | 8.64% | 26.36% | 30.2% | 12.8 ± 10.4% | 45.9 ± 3.4% | 42.2 ± 2.5% | 40.0 ± 5.4% | 54.5 ± 3.4% | 54.3 ± 3.5% | effectively inhibited | 17.9 ± 5.1% | 34.7 ± 3.2% | relatively higher inhibition rates in a manner depending on concentration | 56.2 ± 6.6% | 67.6 ± 6.6% | concentration-dependent decrease | 25.0 ± 7.8% | 38.0 ± 4.1% | concentration-dependent inhibition |  | Viability of H292 cells (%, average ± deviation) (H292 cells; 2.5 μM): 121.27 ± 2.04%; Viability of H292 cells (%, average ± deviation) (H292 cells; 5 μM): 121.61 ± 3.75%; Viability of H292 cells (%, average ± deviation) (H292 cells; 10 μM): 118.76 ± 1.96%; production of MUC5AC (in words) (MUC5AC protein): inhibited in a manner depending on the concentrations; production of MUC5AC (in words) (MUC5AC protein; listed as Formula 2): inhibited the production of MUC5AC in a manner depending on concentration; Inhibition rate (%) (MUC5AC promoters): 55.74% |
| COc1ccc([C@H]2OC[C@H]3[C@@H]2CO[C@@H]3c2ccc3c(c2)OCO3)cc1OC [Compound S5, dimethoxyaschantin] | 13.93% | 10.12% | 16.43% | 28.3 ± 7.2% | 44.2 ± 4.1% | 33.0 ± 4.4% | 37.1 ± 7.1% | 53.2 ± 5.4% | 43.2 ± 5.4% |  | 31.3 ± 2.5% | 39.7 ± 3.5% | relatively higher inhibition rates in a manner depending on concentration | 36.1 ± 5.5% | 48.8 ± 4.4% | concentration-dependent decrease | 32.9 ± 4.8% | 39.1 ± 1.9% | concentration-dependent inhibition |  |  |
| COc1cc([C@H]2OC[C@H]3[C@@H]2CO[C@@H]3c2ccc3c(c2)OCO3)cc(OC)c1OC [Compound S6, aschantin] | 0.15% | 4.19% | 1.2% | 37.8 ± 5.3% | 50.7 ± 5.9% | 42.8 ± 2.4% | 26.0 ± 5.6% | 66.3 ± 5.9% | 43.7 ± 4.7% | effectively inhibited | 30.6 ± 7.6% | 33.5 ± 6.9% | relatively higher inhibition rates in a manner depending on concentration | 59.3 ± 7.2% | 62.9 ± 6.0% | concentration-dependent decrease | 39.8 ± 10.2% | 47.8 ± 4.7% | concentration-dependent inhibition | higher rates of inhibiting reactive oxygen than that of the drug control group treated with ROF | rate of inhibiting reactive oxygen compared with ROF drug control group (in words) (reactive oxygen species; 30 mg/kg): higher rates of inhibiting reactive oxygen than that of the drug control group treated with ROF |
| COc1ccc([C@@H]2OC[C@H]3[C@@H]2CO[C@@H]3c2ccc3c(c2)OCO3)cc1OC [Compound S7, fargesin] | 0.79% | 1.69% | 11.05% | 37.1 ± 2.8% | 51.7 ± 6.3% | 44.1 ± 3.7% | 34.8 ± 6.1% | 38.2 ± 5.4% | 34.1 ± 6.1% | effectively inhibited | 47.5 ± 5.2% | 39.6 ± 6.9% | higher inhibition rate in the low dose groups | 50.8 ± 17.0% | 31.4 ± 9.6% |  | 49.1 ± 2.6% | 34.1 ± 7.1% |  | higher rates of inhibiting reactive oxygen than that of the drug control group treated with ROF | rate of inhibiting reactive oxygen compared with ROF drug control group (in words) (reactive oxygen species; 30 mg/kg): higher rates of inhibiting reactive oxygen than that of the drug control group treated with ROF |
